Experiment [1] concerns the target T1, recombinant 5-HT2c receptor (human) (Homo sapiens, UniProt P28335).
T1 construct: expressed in transfected cells
Briefly: 5-HT2c competition binding assay ([125I]-DOI SPA). Here is the method:
[^125I]-(±)DOI binding experiments are carried out in SPA 96-well format. Membranes used in this assay are prepared from AV-12 cells stably expressing recombinant 5-HT2c receptor (human). The incubation is initiated by the addition of a mixture of WGA PVT SPA beads (0.5 mg/well, Perkin Elmer (MA, USA), RPNQ0001) and 2.5 μg membranes to assay buffer (50 mM Tris-HCl, 10 mM MgCl2, 0.5 mM EDTA, 10 μM pargyline, 0.1% ascorbic acid, pH7.4) containing 0.2 nM [[^125I]-(±)DOI and varying concentrations of the test compound (10 point concentration response curves). Non-specific binding is determined in the presence of 20 μM 1-(1-Naphthyl)piperazine. Samples are incubated for four hours at room temperature (22° C.) and then read in a Microbeta Trilux.
Curves are evaluated using a 4-parameter logistic nonlinear equation to obtain the concentration of competitor causing 50% inhibition of radioligand binding (IC50). Equilibrium dissociation constants (Ki) are calculated according to the equation Ki=IC50/(1+L/Kd), where L equals the concentration of radioligand used in the experiment and Kd equals the equilibrium dissociation constant of the radioligand for the receptor, determined from standard saturation analysis or homologous competition experiments. […]

In experiment [2] the target is human recombinant H1 receptor (Homo sapiens, UniProt P35367). Briefly: H1 inverse agonism (IP1 accumulation in HEK293/hm H1 cells). The format is cell-based. Also noted: expressed in transfected cells; host or cells: HEK293 (HEK293/hm H1 clone R-40).
Chain of human recombinant H1 receptor (P35367 whole entry): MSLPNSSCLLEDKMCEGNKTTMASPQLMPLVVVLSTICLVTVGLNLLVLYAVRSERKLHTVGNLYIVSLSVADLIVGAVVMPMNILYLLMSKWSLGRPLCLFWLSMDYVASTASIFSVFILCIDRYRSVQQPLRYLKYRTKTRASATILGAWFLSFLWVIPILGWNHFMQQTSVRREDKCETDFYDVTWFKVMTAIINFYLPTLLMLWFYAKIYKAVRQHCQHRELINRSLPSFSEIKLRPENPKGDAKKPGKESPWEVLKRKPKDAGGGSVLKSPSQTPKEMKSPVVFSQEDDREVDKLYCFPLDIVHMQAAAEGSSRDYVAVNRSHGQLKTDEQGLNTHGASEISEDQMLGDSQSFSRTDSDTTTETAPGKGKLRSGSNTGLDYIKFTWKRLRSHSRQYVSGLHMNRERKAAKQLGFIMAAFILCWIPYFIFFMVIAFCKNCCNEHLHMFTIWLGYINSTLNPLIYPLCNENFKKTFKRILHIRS
In experiment [3] the target is T2, H1 receptor (Rattus norvegicus, UniProt P31390).
T2 construct: from tissue; host or cells: living rat; frontal cortex
T2 sequence (P31390 whole entry): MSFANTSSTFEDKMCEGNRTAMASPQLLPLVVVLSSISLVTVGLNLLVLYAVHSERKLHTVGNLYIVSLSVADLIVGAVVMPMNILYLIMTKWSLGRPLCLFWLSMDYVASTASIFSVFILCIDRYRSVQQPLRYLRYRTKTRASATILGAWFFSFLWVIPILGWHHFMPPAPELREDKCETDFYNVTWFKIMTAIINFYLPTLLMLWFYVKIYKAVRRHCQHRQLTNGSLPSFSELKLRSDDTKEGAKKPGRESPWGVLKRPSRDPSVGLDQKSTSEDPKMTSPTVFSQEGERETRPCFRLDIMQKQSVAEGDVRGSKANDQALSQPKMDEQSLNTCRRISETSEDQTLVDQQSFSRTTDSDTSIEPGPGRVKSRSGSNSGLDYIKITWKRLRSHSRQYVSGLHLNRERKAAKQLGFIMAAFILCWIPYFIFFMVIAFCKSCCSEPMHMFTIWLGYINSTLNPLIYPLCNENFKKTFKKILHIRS
Briefly: Histamine H1 receptor occupancy in vivo (doxepin tracer). Particulars: oral gavage, 1 hour before tracer, read-out: H1 RO EC50. How it is done: Statistical Methods: Curves for each study are fitted to a 4 parameter logistic function with the bottom fixed at 0% using JMP® version 8.0 (SAS Institute Inc, Cary N.C.) and the absolute ED50 is calculated by the software. Values are given as means, standard errors and 95% confidence intervals. […] Briefly, male Sprague-Dawley rats (Harlan Sprague-Dawley, Indianapolis, Ind.) weighing approximately 230-280 grams are given ad lib access to food and water until the beginning of the 3-hour experimental protocol. 3-[4-(8-Fluorodibenzo[b,f][1,4]oxazepin-1′-yl)piperazin-1-yl]-2,2-dimethylpropanoic acid dihydrochloride is used as a positive control and doxepin is used as a tracer. Test compounds and control are administered by oral gavage in a vehicle comprised of 20% hydroxypropyl beta-cyclodextrin. Doxepin is dissolved in sterile water (100 μg/ml), diluted to 2 μg/ml with saline, and administered in a volume of 0.5 mL/kg intravenously via the lateral tail vein to yield a tracer dose of 1 μg/kg. Rats are administered test compound, 15 mg/kg positive control, or vehicle, followed 1 hour later by an intravenous “tracer” dose of doxepin (N=4). It is at the time of tracer administration that RO is considered to be measured. 40 mins after tracer administration, rats are sacrificed by cervical dislocation. Plasma samples are collected and the frontal cortex is removed. […]

Where a name gives a salt, the structure may show the parent alone.

T1 sequence (P28335 33-458): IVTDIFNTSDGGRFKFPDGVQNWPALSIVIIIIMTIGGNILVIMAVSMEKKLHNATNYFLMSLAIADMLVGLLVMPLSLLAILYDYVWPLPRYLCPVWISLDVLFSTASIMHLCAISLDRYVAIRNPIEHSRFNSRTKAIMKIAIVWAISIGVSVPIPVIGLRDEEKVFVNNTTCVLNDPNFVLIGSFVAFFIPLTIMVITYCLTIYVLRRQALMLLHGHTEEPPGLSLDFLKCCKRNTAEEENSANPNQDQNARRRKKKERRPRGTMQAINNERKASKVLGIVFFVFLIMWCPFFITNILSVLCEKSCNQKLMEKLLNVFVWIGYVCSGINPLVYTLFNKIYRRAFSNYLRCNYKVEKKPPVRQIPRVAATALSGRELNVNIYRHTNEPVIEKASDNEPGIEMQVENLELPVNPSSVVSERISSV

One may read the Ki as a dissociation constant, usually derived from enzyme kinetics or from competition with a known ligand. By IC50 is commonly meant the midpoint of a concentration-inhibition curve. Consider `Cc1cc2n(c1)Cc1cc(Cl)ccc1N=C2N1CCN(CC(C)(C)C(=O)O)CC1` [Example 13, 3-[4-(7-Chloro-2-methyl-5H-pyrrolo[2,1-c][1,4]benzodiazepin-11-yl)piperazin-1-yl]-2,2-dimethylpropanoic acid dihydrochloride], for which the Ki in experiment [1] was 2370 nM. Also, in experiment [2] (IP1 accumulation, HEK293/hm H1 cells), the IC50 was 53.9 ± 37 nM. The “suppression of constitutive activity (negative efficacy)” value in experiment [2] (relative to positive control Tripelennamine 10 μM) came out at 126±6%. For the same compound, the ED50 in experiment [3] was 0.3 mg/kg.

The record behind these values is patent US8314092B2, “Substituted [(5H-pyrrolo[2,1-c][1,4]benzodiazepin-11-yl)piperazin-1-yl]-2,2-dimethylpropanoic acid compounds as dual activity H1 inverse agonists/5-HT2A antagonists” (Eli Lilly and Company, priority 2011, dated 2012).
